One block for each compound: values may come before it.
Key:
Format in all cases: biochemical
[1] = target: T1, human G34 protein (Homo sapiens, UniProt Q8NCR0); assay: Acceptor substrate specificity to oligosaccharides; details: for % (radioactivity relative to Bz-β-GlcNAc set to 100%): 50 nmol substrate, HEPES pH 7.4, MnCl2 10 mM, 37° C. 2 hours
T1 construct: made in house; host or cells: Sf21 insect cells (baculovirus, pFBIF-G34A)
T1 sequence (Q8NCR0 36-500): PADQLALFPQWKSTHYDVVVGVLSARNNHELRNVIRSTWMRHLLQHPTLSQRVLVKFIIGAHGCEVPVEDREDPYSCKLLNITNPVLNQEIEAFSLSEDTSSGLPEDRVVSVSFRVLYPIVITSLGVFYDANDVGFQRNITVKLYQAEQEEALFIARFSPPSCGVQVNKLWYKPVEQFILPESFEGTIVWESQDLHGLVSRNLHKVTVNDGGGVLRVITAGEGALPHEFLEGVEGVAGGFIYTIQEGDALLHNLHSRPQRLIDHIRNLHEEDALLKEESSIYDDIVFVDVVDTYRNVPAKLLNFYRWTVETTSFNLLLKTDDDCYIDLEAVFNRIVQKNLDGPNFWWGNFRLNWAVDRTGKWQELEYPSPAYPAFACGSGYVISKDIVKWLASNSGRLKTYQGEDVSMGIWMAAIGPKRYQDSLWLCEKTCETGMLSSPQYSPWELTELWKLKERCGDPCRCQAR
Text: The following reaction system was used for examining the acceptor substrate specificity to oligosaccharides. The acceptor substrates used were pNp-α-Gal, oNp-β-Gal, Bz-α-GlcNAc, Bz-β-GlcNAc, Bz-α-GalNAc, pNp-β-GalNAc, pNp-α-Glc, pNp-β-Glc, pNp-β-GlcA, pNp-α-Fuc, pNp-α-Xyl, pNp-β-Xyl, pNp-α-Man, lactoside-Bz, Lac-ceramide, Gal-ceramide, paragloboside, globoside, Gal-β1-4 GalNAc-α-pNp, Gal-β1-3 GlcNAc-β-pNp, GlcNAc-[…] GlcNAc β-Bz, pNp-core1 (Gal-β1-3 GalNAc-α-pNp), pNp-core2 (Gal-β1-3 (GlcNAc-β1-6) GalNAc-α-pNp), pNp-core3 (GlcNAc-β1-3 GalNAc-α-pNp) and pNp-core6 (GlcNAc-β1-6 GalNAc-α-pNp). “Lac” represents a D-lactose residue.
Each reaction solution (final concentrations in parentheses) was prepared by adding each substrate (50 nmol), HEPES buffer (pH 7.4, 14 mM), Triton CF-54 (trade name) (0.3%), UDP-GalNAc (2 mM), MnCl2 (10 mM), UDP-[^3H]GlcNAc and 5 μl G34 enzyme solution, followed by dilution with H2O to a total volume of […].
(§1) The above reaction mixtures were each reacted at 37° C. for 2 hours. After completion of the reaction, 200 μl H2O was added and each mixture was lightly centrifuged to obtain the supernatant. The supernatant was passed through a Sep-Pak plus C18 Cartridge (Waters), which had been washed once with 1 ml methanol and twice with 1 ml H2O and then equilibrated, to allow the substrate and product in the supernatant to adsorb to the cartridge. After washing the cartridge twice with 1 ml H2O, the adsorbed substrate and product were eluted with 1 ml methanol. The eluate was mixed with 5 ml liquid scintillator ACSII (Amersham Biosciences) and measured for the amount of radiation with a scintillation counter (Beckman Coulter).
The results thus measured were compared assuming that the radioactivity obtained using Bz-β-GlcNAc as a substrate was set to 100% (see Table 5).

[2] = target: T2, mouse G34 (Mus musculus, UniProt Q8BG28); assay: Substrate specificity of β1,3-N-acetylgalactosamine transferase activity of mouse G34; details: for % (radioactivity relative to Bz-β-GlcNAc set to 100%): 10 nmol substrate, HEPES pH 7.4, MnCl2 10 mM, 37° C. 16 hours
T2 construct: made in house; host or cells: 293T cells transfected with pFLAG-CMV3-mG34A; purified from the supernatant
T2 sequence (Q8BG28 35-504): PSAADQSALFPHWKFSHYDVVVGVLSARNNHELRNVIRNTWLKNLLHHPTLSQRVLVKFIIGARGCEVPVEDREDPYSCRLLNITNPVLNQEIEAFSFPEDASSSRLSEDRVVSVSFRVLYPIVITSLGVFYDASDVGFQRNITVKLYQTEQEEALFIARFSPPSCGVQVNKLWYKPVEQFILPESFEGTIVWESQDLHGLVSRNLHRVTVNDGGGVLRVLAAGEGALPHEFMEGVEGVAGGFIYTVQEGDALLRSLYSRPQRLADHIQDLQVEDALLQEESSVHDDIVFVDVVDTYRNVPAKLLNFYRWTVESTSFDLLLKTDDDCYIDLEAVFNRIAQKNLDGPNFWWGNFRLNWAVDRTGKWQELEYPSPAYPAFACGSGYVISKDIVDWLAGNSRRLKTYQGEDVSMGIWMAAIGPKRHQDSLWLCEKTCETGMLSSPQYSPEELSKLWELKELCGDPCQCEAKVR
Text: The following reaction system was used for examining mouse G34 for its substrate specificity in its β1,3-N-acetylgalactosamine transferase activity. In the reaction solutions shown below, each of the following was used at […] as an “acceptor substrate”: pNp-α-Gal, oNp-β-Gal, Bz-α-GlcNAc, Bz-β-GlcNAc, Bz-α-GalNAc, pNp-β-GalNAc, pNp-α-Glc, pNp-β-Glc, pNp-β-GlcA, pNp-α-Fuc, pNp-α-Xyl, pNp-β-Xyl, pNp-α-Man, lactoside-Bz, Lac-ceramide, Gal-ceramide, Gb3, globoside, Gal-β1-4GalNAc-α-pNp, Galβ1-3GlcNAc-β-Bz, GlcNAc-β1-4-GlcNAc-β-Bz, core1-pNp, core2-pNp, core3-pNp and core6-pNp (all purchased from SIGMA).
Each reaction solution was prepared as follows (final concentrations in parentheses): each substrate (10 nmol), HEPES (N-[2-hydroxyethyl]piperazine-N′-[2-ethanesulfonic acid]) (pH 7.4, 14 mM), MnCl2 (10 mM), Triton CF-54 (trade name) (0.3%), UDP-GalNAc (2 mM) and […] (40 nCi) were mixed and supplemented with 5 μl mouse G34 enzyme solution, followed by dilution with H2O to a total volume of 20 μl.
as §1, with “for 16” for “for 2”
The results thus measured were compared assuming that the radioactivity obtained using Bz-β-GlcNAc as a substrate was set to 100% (Table 11).

[3] = target: T1, human G34 protein; assay: RI assay (divalent ion requirement)
[4] = concentration 2.5 mM, acceptor Bz-β-GlcNAc, HEPES pH 7.4
[5] = concentration 5 mM, acceptor Bz-β-GlcNAc, HEPES pH 7.4
[6] = concentration 10 mM, acceptor Bz-β-GlcNAc, HEPES pH 7.4
[7] = concentration 20 mM, acceptor Bz-β-GlcNAc, HEPES pH 7.4

% (radioactivity relative to Bz-β-GlcNAc set to 100%) [1]: 100%
increase in radioactivity [2]: largest increase in radioactivity
% (radioactivity relative to Bz-β-GlcNAc set to 100%) [2]: 100%
Compound: CC(=O)N[C@H]1[C@H](OCc2ccccc2)O[C@H](CO)[C@@H](O)[C@@H]1O [Bz-β-GlcNAc]

Compound: [Cl-].[Cl-].[Co+2] [Co, CoCl2]
DPM ([3]; concentration 2.5 mM): 10979.99 DPM
DPM ([3]; concentration 5 mM): 9503.91 DPM
DPM ([3]; concentration 10 mM): 10979.99 DPM
DPM ([3]; concentration 20 mM): 8070.47 DPM
DPM ([3]; concentration 40 mM): 7854.92 DPM

Mn-induced enhancement of the activity on addition of Cu [3]: completely eliminated
Compound: [Cu+2] [Cu]

Compound: O=C(O)CN(CCN(CC(=O)O)CC(=O)O)CC(=O)O [EDTA]
DPM ([3]; pH 7.4): 149.32 DPM

% (radioactivity relative to Bz-β-GlcNAc set to 100%) [1]: 29%
% (radioactivity relative to Bz-β-GlcNAc set to 100%) [2]: 10%
Compound: CC(=O)N[C@H]1[C@H](OCc2ccccc2)O[C@H](CO)[C@@H](O[C@@H]2O[C@H](CO)[C@@H](O)[C@H](O)[C@H]2NC(C)=O)[C@@H]1O [GlcNAcβ1-4GlcNAc-β-Bz]

DPM [3, 4]: 4800.03 DPM
DPM [3, 5]: 8692.15 DPM
DPM [3, 6]: 8980.56 DPM
DPM [3, 7]: 6726.32 DPM
DPM ([3]; concentration 40 mM, acceptor Bz-β-GlcNAc, HEPES pH 7.4): 5592.88 DPM
Compound: [Cl-].[Cl-].[Mg+2] [Mg, MgCl2]

DPM [3, 4]: 7260.09 DPM
DPM [3, 5]: 8270.23 DPM
DPM [3, 6]: 7748.77 DPM
DPM [3, 7]: 7515.86 DPM
Compound: [Cl][Mn][Cl] [Mn, MnCl2]

increase in radioactivity [1]: largest increase in radioactivity
% (radioactivity relative to Bz-β-GlcNAc set to 100%) [1]: 185%
% (radioactivity relative to Bz-β-GlcNAc set to 100%) [2]: 25%
Compound: CC(=O)N[C@H]1[C@H](OC[C@H]2O[C@H](Oc3ccc([N+](=O)[O-])cc3)[C@H](NC(C)=O)[C@@H](O[C@@H]3O[C@H](CO)[C@H](O)[C@H](O)[C@H]3O)[C@H]2O)O[C@H](CO)[C@@H](O)[C@@H]1O [core2-pNp, Gal-β1-3-(GlcNAc-β1-6)GalNAc-α-pNp]

% (radioactivity relative to Bz-β-GlcNAc set to 100%) [1]: 8%
% (radioactivity relative to Bz-β-GlcNAc set to 100%) [2]: 14%
Compound: CC(=O)NC1C(OC2C(O)C(CO)OC(Oc3ccc([N+](=O)[O-])cc3)C2NC(C)=O)OC(CO)C(O)C1O (stereo not drawn) [core3-pNp, GlcNAc-β1-3-GalNAc-α-pNp]

% (radioactivity relative to Bz-β-GlcNAc set to 100%) [1]: 19%
% (radioactivity relative to Bz-β-GlcNAc set to 100%) [2]: 18%
Compound: CC(=O)N[C@H]1[C@@H](Oc2ccc([N+](=O)[O-])cc2)O[C@H](CO[C@@H]2O[C@H](CO)[C@@H](O)[C@H](O)[C@H]2NC(C)=O)[C@H](O)[C@@H]1O [core6-pNp, GlcNAc-β1-6-GalNAc-α-pNp]

% (radioactivity relative to Bz-β-GlcNAc set to 100%) [2]: 12%
Compound: O=[N+]([O-])c1ccc(O[C@@H]2O[C@H](CO)[C@@H](O)[C@H](O)[C@H]2O)cc1 [pNp-β-Glc]

Source: patent US8431365B2, “β1,3-N-acetyl-D-galactosamine transferase protein, nucleic acid encoding the same and method of examining canceration using the same” (National Institute of Advanced Industrial Science and …, priority 2003, dated 2013)
